The results in this text go back to US11981658B2, “Substituted aminopyridine compounds as EGFR inhibitors” (YUHAN CORPORATION, priority 2021, dated 2024).

Read-outs that look alike come from different tables or passages of the source.

One experiment deals with EGFR Del19/T790M/C797S (Homo sapiens, UniProt P00533, C797S/DEL746-750/T790M). The experiment can be described thus: Biochemical EGFR kinase inhibition assay (Lance Ultra TR-FRET), triple mutant del19/T790M/C797S. The procedure:
(§1) Biochemical EGFR kinase assays were conducted using Lance Ultra time-resolved fluorescence resonance energy transfer (TR-FRET) technology from Perkin-Elmer. Compounds of the invention were initially diluted to 20 mM in 100% DMSO for storage and made into kinase buffer solution to create a compound concentration ranging from 0.003 μM and 10 μM.
(§2) Each kinase reactions were incubated at room temperature for 1 hour and then stopped by the addition of 4 μL of stop solution (10 mM EDTA). The specific Europium-labeled-anti-phosphopeptide antibody (PerkinElmer, AD0069) diluted in LANCE detection buffer was then added to a final concentration of 2 nM. After 60 minutes incubation at room temperature the LANCE signal was measured on an EnVision Multilabel Reader (Perkin-Elmer). Excitation wavelength was set at 320 nm and emission monitored at 615 nm (donor) and 665 nm (acceptor). The IC50 values were determined using GraphPad prism software (GraphPad Software, Inc., San Diego, CA, USA).

The target of the next experiment is EGFR Del19/C797S (Homo sapiens, UniProt P00533, C797S/DEL746-750). The experiment can be described thus: Biochemical EGFR kinase inhibition assay (Lance Ultra TR-FRET), double mutant del19/C797S. The procedure: as §1, §2
EGFR Del19/C797S, sequence (P00533 with tags, fused parts or gaps DEL746-750/C797S): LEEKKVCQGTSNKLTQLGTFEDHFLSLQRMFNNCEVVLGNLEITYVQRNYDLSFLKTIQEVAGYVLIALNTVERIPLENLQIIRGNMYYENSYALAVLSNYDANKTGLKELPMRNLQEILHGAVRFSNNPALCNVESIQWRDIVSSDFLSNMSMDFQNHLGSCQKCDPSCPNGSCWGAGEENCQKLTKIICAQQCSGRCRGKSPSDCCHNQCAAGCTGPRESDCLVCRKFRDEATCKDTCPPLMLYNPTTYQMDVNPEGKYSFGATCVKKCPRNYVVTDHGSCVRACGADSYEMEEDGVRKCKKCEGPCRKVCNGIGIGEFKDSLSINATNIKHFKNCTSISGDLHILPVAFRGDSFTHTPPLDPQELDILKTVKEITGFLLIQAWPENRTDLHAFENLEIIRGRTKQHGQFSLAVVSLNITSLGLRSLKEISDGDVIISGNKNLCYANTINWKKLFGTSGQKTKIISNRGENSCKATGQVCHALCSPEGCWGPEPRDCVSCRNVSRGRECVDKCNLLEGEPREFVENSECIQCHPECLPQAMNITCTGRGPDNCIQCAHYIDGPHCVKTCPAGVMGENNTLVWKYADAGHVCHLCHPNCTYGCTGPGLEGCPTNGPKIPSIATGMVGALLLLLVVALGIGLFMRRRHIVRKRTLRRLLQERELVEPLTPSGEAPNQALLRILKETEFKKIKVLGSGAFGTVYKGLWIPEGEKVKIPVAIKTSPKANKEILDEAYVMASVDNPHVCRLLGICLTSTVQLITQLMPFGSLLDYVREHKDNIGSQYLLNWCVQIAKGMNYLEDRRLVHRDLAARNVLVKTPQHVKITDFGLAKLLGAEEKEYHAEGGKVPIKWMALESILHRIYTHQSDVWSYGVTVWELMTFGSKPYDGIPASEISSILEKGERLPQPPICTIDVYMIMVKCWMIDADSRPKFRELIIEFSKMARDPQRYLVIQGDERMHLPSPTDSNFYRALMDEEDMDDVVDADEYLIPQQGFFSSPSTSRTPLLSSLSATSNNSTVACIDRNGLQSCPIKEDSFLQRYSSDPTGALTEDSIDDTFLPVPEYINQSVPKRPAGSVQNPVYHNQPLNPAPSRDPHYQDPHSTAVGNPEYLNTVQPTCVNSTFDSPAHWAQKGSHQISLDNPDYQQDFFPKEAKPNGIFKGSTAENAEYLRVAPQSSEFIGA
In a further experiment the target is EGFR wildtype (WT) (Homo sapiens, UniProt P00533). Briefly: Biochemical EGFR kinase inhibition assay (Lance Ultra TR-FRET), wildtype. The procedure: as §1, §2
EGFR wildtype (WT), sequence (P00533 25-1210): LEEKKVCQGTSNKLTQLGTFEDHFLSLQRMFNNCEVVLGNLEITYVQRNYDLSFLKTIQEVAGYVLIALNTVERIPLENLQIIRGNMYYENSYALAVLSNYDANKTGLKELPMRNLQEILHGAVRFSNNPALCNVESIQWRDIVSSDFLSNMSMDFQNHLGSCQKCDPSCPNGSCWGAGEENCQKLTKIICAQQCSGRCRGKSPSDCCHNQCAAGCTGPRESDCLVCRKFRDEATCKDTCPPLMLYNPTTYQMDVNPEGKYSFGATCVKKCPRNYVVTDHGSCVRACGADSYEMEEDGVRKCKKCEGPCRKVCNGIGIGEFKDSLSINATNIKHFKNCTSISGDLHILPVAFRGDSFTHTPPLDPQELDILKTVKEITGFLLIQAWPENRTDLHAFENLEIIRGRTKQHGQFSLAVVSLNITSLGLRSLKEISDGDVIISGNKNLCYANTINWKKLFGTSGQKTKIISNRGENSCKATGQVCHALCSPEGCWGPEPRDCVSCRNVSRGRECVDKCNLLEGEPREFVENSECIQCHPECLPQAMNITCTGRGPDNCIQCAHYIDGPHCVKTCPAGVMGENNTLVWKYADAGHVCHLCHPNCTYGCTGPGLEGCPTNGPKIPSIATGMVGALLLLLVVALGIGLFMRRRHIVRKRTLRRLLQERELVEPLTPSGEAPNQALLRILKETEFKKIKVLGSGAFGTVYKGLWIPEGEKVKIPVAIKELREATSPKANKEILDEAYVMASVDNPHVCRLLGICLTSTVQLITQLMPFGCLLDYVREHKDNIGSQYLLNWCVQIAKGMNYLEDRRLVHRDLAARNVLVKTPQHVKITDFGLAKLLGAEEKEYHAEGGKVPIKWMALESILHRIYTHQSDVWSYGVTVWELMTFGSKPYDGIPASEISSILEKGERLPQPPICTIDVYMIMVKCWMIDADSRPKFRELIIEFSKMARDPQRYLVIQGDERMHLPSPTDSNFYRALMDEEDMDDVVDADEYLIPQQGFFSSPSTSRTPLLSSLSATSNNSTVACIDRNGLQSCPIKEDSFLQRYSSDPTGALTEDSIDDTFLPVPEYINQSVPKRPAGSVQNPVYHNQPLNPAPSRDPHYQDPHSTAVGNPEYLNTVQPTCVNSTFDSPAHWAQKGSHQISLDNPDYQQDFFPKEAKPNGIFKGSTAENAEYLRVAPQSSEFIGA
The next experiment deals with EGFR L858R/C797S (Homo sapiens, UniProt P00533, C797S/L858R). The experiment can be described thus: Biochemical EGFR kinase inhibition assay (Lance Ultra TR-FRET), double mutant L858R/C797S. The procedure: as §1, §2
In another experiment the target is EGFR L858R/T790M/C797S (Homo sapiens, UniProt P00533, C797S/L858R/T790M). Briefly: Biochemical EGFR kinase inhibition assay (Lance Ultra TR-FRET), triple mutant L858R/T790M/C797S. The procedure: as §1, §2
EGFR L858R/T790M/C797S, sequence (P00533 25-1210 T790M/C797S/L858R): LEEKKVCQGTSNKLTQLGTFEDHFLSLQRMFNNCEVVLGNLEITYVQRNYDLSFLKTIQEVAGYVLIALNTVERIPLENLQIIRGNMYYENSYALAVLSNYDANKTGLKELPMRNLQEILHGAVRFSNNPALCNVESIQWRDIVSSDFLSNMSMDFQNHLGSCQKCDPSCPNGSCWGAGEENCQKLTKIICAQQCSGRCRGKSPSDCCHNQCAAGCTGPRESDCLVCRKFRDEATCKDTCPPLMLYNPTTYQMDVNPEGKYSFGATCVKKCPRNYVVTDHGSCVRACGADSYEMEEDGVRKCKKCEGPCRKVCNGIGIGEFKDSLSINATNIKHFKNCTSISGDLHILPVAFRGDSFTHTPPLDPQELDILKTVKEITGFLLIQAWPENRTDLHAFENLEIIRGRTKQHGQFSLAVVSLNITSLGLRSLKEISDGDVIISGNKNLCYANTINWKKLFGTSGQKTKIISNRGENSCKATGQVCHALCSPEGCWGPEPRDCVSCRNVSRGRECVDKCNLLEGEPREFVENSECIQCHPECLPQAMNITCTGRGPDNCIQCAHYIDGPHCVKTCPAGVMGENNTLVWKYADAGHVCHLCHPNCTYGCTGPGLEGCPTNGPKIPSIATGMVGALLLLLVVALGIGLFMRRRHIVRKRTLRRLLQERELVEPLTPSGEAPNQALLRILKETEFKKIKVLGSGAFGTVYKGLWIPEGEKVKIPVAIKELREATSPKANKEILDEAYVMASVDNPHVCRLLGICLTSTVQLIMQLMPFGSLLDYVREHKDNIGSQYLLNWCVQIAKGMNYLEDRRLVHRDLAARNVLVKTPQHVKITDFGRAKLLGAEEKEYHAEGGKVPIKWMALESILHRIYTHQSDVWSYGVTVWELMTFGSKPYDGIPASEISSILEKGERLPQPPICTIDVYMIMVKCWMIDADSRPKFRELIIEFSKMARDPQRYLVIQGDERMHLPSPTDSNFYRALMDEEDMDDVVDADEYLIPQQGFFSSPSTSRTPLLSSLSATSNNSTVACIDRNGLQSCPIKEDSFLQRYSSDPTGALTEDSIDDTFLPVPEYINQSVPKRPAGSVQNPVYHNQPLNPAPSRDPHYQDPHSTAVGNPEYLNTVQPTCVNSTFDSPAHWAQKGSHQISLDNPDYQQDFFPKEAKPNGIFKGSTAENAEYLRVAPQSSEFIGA
The mark [1] stands for this setting: ATP at Km, read-out: IC50 Del19/T790M/C797S (nM), Km ATP.
The mark [2] stands for this setting: IC50 Del19/T790M/C797S (nM), 100 μM ATP.
Setting [3] is: ATP at Km, read-out: IC50 Del19/C797S (nM), Km ATP.
[4] abbreviates: IC50 Del19/C797S (nM), 100 μM ATP.
Where [5] appears, read: IC50 L858R/C797S (nM), 100 μM ATP.
Where [6] appears, read: Km ATP, read-out: IC50 Del19/T790M/C797S (nM) Km ATP.
[7] abbreviates: Km ATP, read-out: IC50 Del19/C797S (nM) Km ATP.
The mark [8] stands for this setting: Km ATP, read-out: IC50 L858R/T790M/C797S (nM) Km ATP.
Where [9] appears, read: Km ATP, read-out: IC50 WT (nM) Km ATP.
Setting [10] is: IC50 L858R/T790M/C797S (nM), 100 μM ATP.

EGFR Del19/T790M/C797S, sequence (P00533 with tags, fused parts or gaps DEL746-750/T790M/C797S): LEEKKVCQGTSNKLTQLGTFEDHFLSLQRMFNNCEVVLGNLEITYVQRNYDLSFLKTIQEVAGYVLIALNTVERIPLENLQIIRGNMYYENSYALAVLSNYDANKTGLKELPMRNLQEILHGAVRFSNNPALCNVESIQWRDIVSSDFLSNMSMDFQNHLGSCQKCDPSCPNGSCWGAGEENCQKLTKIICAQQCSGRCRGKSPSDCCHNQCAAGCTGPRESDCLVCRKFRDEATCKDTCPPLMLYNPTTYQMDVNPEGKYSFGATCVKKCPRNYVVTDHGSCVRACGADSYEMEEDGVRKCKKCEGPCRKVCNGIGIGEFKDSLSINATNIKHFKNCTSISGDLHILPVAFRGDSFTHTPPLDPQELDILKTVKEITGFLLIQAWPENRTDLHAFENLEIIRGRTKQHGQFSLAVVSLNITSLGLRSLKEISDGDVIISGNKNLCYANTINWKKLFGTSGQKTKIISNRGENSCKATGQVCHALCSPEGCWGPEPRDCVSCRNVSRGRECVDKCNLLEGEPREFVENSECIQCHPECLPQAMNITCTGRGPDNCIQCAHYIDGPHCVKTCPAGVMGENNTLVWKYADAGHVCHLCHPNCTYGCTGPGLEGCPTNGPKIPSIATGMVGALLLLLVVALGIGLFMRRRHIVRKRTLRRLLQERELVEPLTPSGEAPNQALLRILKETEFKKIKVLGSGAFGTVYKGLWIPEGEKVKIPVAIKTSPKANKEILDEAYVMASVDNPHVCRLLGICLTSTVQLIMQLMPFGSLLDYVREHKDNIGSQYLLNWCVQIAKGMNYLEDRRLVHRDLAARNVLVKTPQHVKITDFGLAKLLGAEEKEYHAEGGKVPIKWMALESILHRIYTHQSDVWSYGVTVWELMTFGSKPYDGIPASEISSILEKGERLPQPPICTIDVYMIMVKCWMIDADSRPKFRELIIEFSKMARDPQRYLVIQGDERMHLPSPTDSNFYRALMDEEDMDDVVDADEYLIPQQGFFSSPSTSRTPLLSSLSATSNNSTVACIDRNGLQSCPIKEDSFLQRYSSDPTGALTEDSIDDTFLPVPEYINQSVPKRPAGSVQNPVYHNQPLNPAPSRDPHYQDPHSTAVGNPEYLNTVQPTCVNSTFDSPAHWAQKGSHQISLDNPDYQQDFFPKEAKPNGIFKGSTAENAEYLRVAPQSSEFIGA

With `CC(C)Nc1cc(Nc2ccnc(-c3cnn(S(=O)(=O)C4CC4)c3)n2)ncc1C#CCCCNC(=O)N1CCOCC1` [Example 207, N-(5-(6-((2-(1-(Cyclopropylsulfonyl)-1H-pyrazol-4-yl)pyrimidin-4-yl)amino)-4-(isopropylamino)pyridin-3-yl)pent-4-yn-1-yl)morpholine-4-carboxamide], the IC50 at EGFR Del19/T790M/C797S (setting [1]) was 2.1 nM; against EGFR Del19/T790M/C797S (setting [2]), 2.9 nM; on EGFR Del19/C797S (setting [3]), 29.1 nM; against EGFR Del19/C797S (setting [4]), 76.4 nM; at EGFR wildtype (WT) (ATP at Km, read-out: IC50 WT (nM), Km ATP), 56 nM; at EGFR wildtype (WT) (IC50 WT (nM), 100 μM ATP), over 10000 nM. The IC50 on EGFR L858R/C797S (setting [5]) stood at 120 nM.
As to `Cn1cc(C#Cc2cnc(Nc3ccnc(-c4cnn(S(=O)(=O)C5CC5)c4)n3)cc2-c2cnn(C3CC3)c2)cn1` [Example 235, N-(4-(1-Cyclopropyl-1H-pyrazol-4-yl)-5-((1-methyl-1H-pyrazol-4-yl)ethynyl)pyridin-2-yl)-2-(1-(cyclopropylsulfonyl)-1H-pyrazol-4-yl)pyrimidin-4-amine], the IC50 at EGFR Del19/T790M/C797S (setting [6]) was found to be 4.7 nM; at EGFR Del19/C797S (setting [7]) it was 311 nM; on EGFR L858R/T790M/C797S (setting [8]) it was 13.2 nM; on EGFR wildtype (WT) (setting [9]) it was 2220 nM.
For `O=S(=O)(C1CC1)n1cc(-c2nccc(Nc3cc(-c4cnn(C5CC5)c4)c(C#Cc4cnn(CCF)c4)cn3)n2)cn1` [Example 237, N-(4-(1-Cyclopropyl-1H-pyrazol-4-yl)-5-((1-(2-fluoroethyl)-1H-pyrazol-4-yl)ethynyl)pyridin-2-yl)-2-(1-(cyclopropylsulfonyl)-1H-pyrazol-4-yl)pyrimidin-4-amine], the IC50 on EGFR Del19/T790M/C797S (setting [6]) was 5.5 nM; on EGFR Del19/C797S (setting [7]) it was 232 nM; at EGFR L858R/T790M/C797S (setting [8]), 16.5 nM; on EGFR wildtype (WT) (setting [9]), 2720 nM.
As for `CC(C)Oc1cc(Nc2ccnc(-c3cnn(S(=O)(=O)C4CC4)c3)n2)ncc1C#Cc1cnn(CCF)c1` [Example 55, 2-(1-(Cyclopropylsulfonyl)-1H-pyrazol-4-yl)-N-(5-((1-(2-fluoroethyl)-1H-pyrazol-4-yl)ethynyl)-4-isopropoxypyridin-2-yl)pyrimidin-4-amine], the IC50 was found to be 7 nM at EGFR Del19/T790M/C797S (setting [6]), 398 nM at EGFR Del19/C797S (setting [7]), 19.1 nM at EGFR L858R/T790M/C797S (setting [8]) and 2630 nM on EGFR wildtype (WT) (setting [9]).
Regarding `CC(C)Nc1cc(Nc2ccnc(-c3cnn(S(=O)(=O)C4CC4)c3)n2)ncc1C#Cc1cnn(C(C)C)c1` [Example 19, N^2-(2-(1-(Cyclopropylsulfonyl)-1H-pyrazol-4-yl)pyrimidin-4-yl)-N^4-isopropyl-5-((1-isopropyl-1H-pyrazol-4-yl)ethynyl)pyridine-2,4-diamine], the IC50 worked out at 5.4 nM against EGFR Del19/T790M/C797S (setting [2]); 4.4 nM on EGFR Del19/T790M/C797S (setting [6]); 140 nM against EGFR Del19/C797S (setting [4]); 41.8 nM on EGFR Del19/C797S (setting [7]); 3.7 nM against EGFR L858R/T790M/C797S (setting [10]); 2.3 nM on EGFR L858R/T790M/C797S (setting [8]). For the same compound, the IC50 was over 10000 nM against EGFR wildtype (WT) (IC50 WT (nM), 100 μM ATP) and 1680 nM at EGFR wildtype (WT) (setting [9]).
On to `CCC(C)Nc1cc(Nc2ccnc(-c3cnn(S(=O)(=O)C4CC4)c3)n2)ncc1C#Cc1cnn(C)c1` (stereo not shown) [Example 24, N^4-(sec-Butyl)-N^2-(2-(1-(cyclopropylsulfonyl)-1H-pyrazol-4-yl)pyrimidin-4-yl)-5-((1-methyl-1H-pyrazol-4-yl)ethynyl)pyridine-2,4-diamine], for which the IC50 amounted to 2.7 nM at EGFR Del19/T790M/C797S (setting [6]), 32.9 nM on EGFR Del19/C797S (setting [7]), 4.4 nM on EGFR L858R/T790M/C797S (setting [8]) and 462 nM on EGFR wildtype (WT) (setting [9]).
In the case of `Cc1nc(C#Cc2cnc(Nc3ccnc(-c4cnn(S(=O)(=O)C5CC5)c4)n3)cc2NC(C)C)cs1` [Example 199, N^2-(2-(1-(Cyclopropylsulfonyl)-1H-pyrazol-4-yl)pyrimidin-4-yl)-N^4-isopropyl-5-((2-methylthiazol-4-yl)ethynyl)pyridine-2,4-diamine], the IC50 at EGFR Del19/T790M/C797S (setting [1]) turned out to be 5.7 nM; at EGFR Del19/C797S (setting [3]), 82 nM; at EGFR L858R/T790M/C797S (ATP at Km, read-out: IC50 L858R/T790M/C797S (nM), Km ATP), 3.4 nM; at EGFR L858R/C797S (ATP at Km, read-out: IC50 L858R/C797S (nM), Km ATP), 414 nM.
On to `CCC(C)Oc1cc(Nc2ccnc(-c3cnn(S(=O)(=O)C4CC4)c3)n2)ncc1C#Cc1cnn(C)c1` (stereo not shown) [Example 56, N-(4-(sec-Butoxy)-5-((1-methyl-1H-pyrazol-4-yl)ethynyl)pyridin-2-yl)-2-(1-(cyclopropylsulfonyl)-1H-pyrazol-4-yl)pyrimidin-4-amine], for which the IC50 is 7.6 nM on EGFR Del19/T790M/C797S (setting [6]), 291 nM on EGFR Del19/C797S (setting [7]), 24.2 nM at EGFR L858R/T790M/C797S (setting [8]) and over 10000 nM at EGFR wildtype (WT) (setting [9]).
In the case of `Cc1nc(C#Cc2cnc(Nc3ccnc(-c4cnn(S(=O)(=O)C5CC5)c4)n3)cc2N[C@H]2CC[C@H](O)C2)cs1` [Example 222, (1 S,3S)-3-((2-((2-(1-(Cyclopropylsulfonyl)-1H-pyrazol-4-yl)pyrimidin-4-yl)amino)-5-((2-methylthiazol-4-yl)ethynyl)pyridin-4-yl)amino)cyclopentan-1-ol], the IC50 on EGFR Del19/T790M/C797S (setting [2]) was 5.2 nM; against EGFR Del19/C797S (setting [4]), 197 nM; on EGFR L858R/T790M/C797S (setting [10]), 12.2 nM; at EGFR wildtype (WT) (IC50 WT (nM), 100 μM ATP), over 10000 nM.
For `CCC(C)Nc1cc(Nc2ccnc(-c3cnn(S(=O)(=O)C4CC4)c3)n2)ncc1C#Cc1cnn(CCF)c1` (stereo not shown) [Example 26, N^4-(sec-Butyl)-N^2-(2-(1-(cyclopropylsulfonyl)-1H-pyrazol-4-yl)pyrimidin-4-yl)-5-((1-(2-fluoroethyl)-1H-pyrazol-4-yl)ethynyl)pyridine-2,4-diamine], the IC50 at EGFR Del19/T790M/C797S (setting [6]) amounted to 3.1 nM; on EGFR Del19/C797S (setting [7]), 58.1 nM; at EGFR L858R/T790M/C797S (setting [8]), 3.6 nM; at EGFR wildtype (WT) (setting [9]), 545 nM.
With `CC(C)Nc1cc(Nc2ccnc(-c3cnn(S(=O)(=O)C4CC4)c3)n2)ncc1C#CCCCCC(=O)N1CCOCC1` [Example 210, 7-(6-((2-(1-(Cyclopropylsulfonyl)-1H-pyrazol-4-yl)pyrimidin-4-yl)amino)-4-(isopropylamino)pyridin-3-yl)-1-morpholinohept-6-yn-1-one], the IC50 is 3.4 nM on EGFR Del19/T790M/C797S (setting [2]); 143 nM against EGFR Del19/C797S (setting [4]); over 10000 nM against EGFR wildtype (WT) (IC50 WT (nM), 100 μM ATP); 157 nM at EGFR L858R/C797S (setting [5]).
On to `Cn1cc(-c2cc(Nc3ccnc(-c4cnn(S(=O)(=O)C5CC5)c4)n3)ncc2C#Cc2cnn(CCF)c2)cn1` [Example 234, 2-(1-(Cyclopropylsulfonyl)-1H-pyrazol-4-yl)-N-(5-((1-(2-fluoroethyl)-1H-pyrazol-4-yl)ethynyl)-4-(1-methyl-1H-pyrazol-4-yl)pyridin-2-yl)pyrimidin-4-amine], for which the IC50 on EGFR Del19/T790M/C797S (setting [6]) stood at 4.1 nM; on EGFR Del19/C797S (setting [7]), 214 nM; on EGFR L858R/T790M/C797S (setting [8]), 16.1 nM; on EGFR wildtype (WT) (setting [9]) it was 1010 nM.
The like results for `CC(C)Nc1cc(Nc2ccnc(-c3cnn(S(=O)(=O)C4CC4)c3)n2)ncc1C#Cc1cccnc1` [Example 21, N^2-(2-(1-(Cyclopropylsulfonyl)-1H-pyrazol-4-yl)pyrimidin-4-yl)-N^4-isopropyl-5-(pyridin-3-ylethynyl)pyridine-2,4-diamine] were, in that order, 0.8 nM, 34.3 nM, 1.8 nM and 374 nM.
Consider `CCC(C)Nc1cc(Nc2ccnc(-c3cnn(S(=O)(=O)C4CC4)c3)n2)ncc1C#Cc1cnn(C(C)C)c1` (stereo not shown) [Example 25, N^4-(sec-Butyl)-N^2-(2-(1-(cyclopropylsulfonyl)-1H-pyrazol-4-yl)pyrimidin-4-yl)-5-((1-isopropyl-1H-pyrazol-4-yl)ethynyl)pyridine-2,4-diamine], for which the IC50 at EGFR Del19/T790M/C797S (setting [6]) worked out at 6.9 nM; on EGFR Del19/C797S (setting [7]), 105 nM; on EGFR L858R/T790M/C797S (setting [8]) it was 6.5 nM; on EGFR wildtype (WT) (setting [9]), 915 nM.
In the case of `O=S(=O)(C1CC1)n1cc(-c2nccc(Nc3cc(N4CCN(CCO)CC4)c(C#Cc4cnn(CCF)c4)cn3)n2)cn1` [Example 16, 2-(4-(2-((2-(1-(Cyclopropylsulfonyl)-1H-pyrazol-4-yl)pyrimidin-4-yl)amino)-5-((1-(2-fluoroethyl)-1H-pyrazol-4-yl)ethynyl)pyridin-4-yl)piperazin-1-yl)ethan-1-ol], the IC50 against EGFR Del19/T790M/C797S (setting [2]) is 3.3 nM; on EGFR Del19/T790M/C797S (setting [6]), 4.5 nM; against EGFR Del19/C797S (setting [4]) it was 165 nM; at EGFR Del19/C797S (setting [7]) it was 68.6 nM; on EGFR L858R/T790M/C797S (setting [10]), 10.1 nM; against EGFR wildtype (WT) (IC50 WT (nM), 100 μM ATP) it was over 10000 nM. The IC50 at EGFR wildtype (WT) (setting [9]) was 145 nM.
